Patent US9650395B2, “Antibacterial compounds and methods for use” (PTC Therapeutics, Inc., priority 2011, dated 2017)
Converted amounts (≈) assume the structure as drawn. Read-outs that look alike come from different tables or passages of the source.

Tests used:
[1] = system: super sensitive Gram-negative Escherichia coli (E. coli) BAS849; assay: Antibacterial activity, microbroth dilution MIC, E. coli BAS849; assay type: cell-based; conditions: Escherichia coli, read-out: MIC, BAS849
[2] = system: control Gram-negative E. coli 25922 strain; assay: Antibacterial activity, microbroth dilution MIC, E. coli 25922; assay type: cell-based, Escherichia coli; conditions: Escherichia coli; E. coli 25922, microbroth dilution; read-out: MIC, 25922
[3] = system: Gram-positive Staphylococcus aureus (S. aureus) 29213; assay: Antibacterial activity, microbroth dilution MIC, S. aureus 29213; assay type: cell-based; conditions: Staphylococcus aureus; S. aureus 29213, microbroth dilution; read-out: MIC, 29213
[4] = system: quinolone resistant E. coli LZ3111; assay: Antibacterial activity, MIC, quinolone resistant E. coli LZ3111; assay type: cell-based, Escherichia coli; conditions: Escherichia coli, read-out: MIC, LZ3111
Description: (§1) The antibacterial activity from a microbroth dilution method may be presented as the minimum inhibitory concentration (MIC in […]). The MIC value is the lowest concentration of a drug which prevents macroscopically visible bacterial growth under test conditions.
Mutations in these regions are known to confer a high level resistance to the quinolone class of antibiotics.

[5] = system: E. coli ELZ4000 (MDR clinical isolate); assay: Antibacterial activity, MIC, MDR E. coli ELZ4000; assay type: cell-based, Escherichia coli; conditions: Escherichia coli; E. coli ELZ4000, MDR clinical isolate; read-out: MIC ELZ4000
[6] = system: E. coli ELZ4251 (MDR clinical isolate); assay: Antibacterial activity, MIC, MDR E. coli ELZ4251; assay type: cell-based, Escherichia coli; conditions: Escherichia coli, E. coli ELZ4251, MDR clinical isolate; read-out: MIC ELZ4251
[7] = system: Moraxella catarrhalis (M. catarrhalis) 25238; assay: Antibacterial activity, MIC, M. catarrhalis 25238; assay type: cell-based; conditions: Moraxella catarrhalis, M. catarrhalis 25238; read-out: MIC 25238
[8] = system: Haemophilus influenzae (H. influenzae) 49247; assay: Antibacterial activity, MIC, H. influenzae 49247; assay type: cell-based; conditions: Haemophilus influenzae; H. influenzae 49247; read-out: MIC 49247
Description: as §1
Antibacterial activity of test compounds against the Gram-negative bacteria Haemophilus influenzae (H. influenzae) 49247, Moraxella catarrhalis (M. catarrhalis) 25238 and Neisseria meningitidis (N. meningitidis) 13090 is shown in Table 6.

[9] = system: Neisseria meningitidis (N. meningitidis) 13090; assay: Antibacterial activity, MIC, N. meningitidis 13090; assay type: cell-based; conditions: Neisseria meningitidis; N. meningitidis 13090; read-out: MIC 13090
[10] = system: Pseudomonas aeruginosa (P. aeruginosa) 27853; assay: Antibacterial activity, MIC, P. aeruginosa 27853; assay type: cell-based; conditions: Pseudomonas aeruginosa, P. aeruginosa 27853; read-out: MIC 27853
Description: as §1
Antibacterial activity of test compounds against the Gram-negative bacterium Pseudomonas aeruginosa (P. aeruginosa) 27853 is shown in Table 5.

[11] = E. coli BAS849, microbroth dilution

`CCc1cc(C(=O)O)c(=O)[nH]c1-c1ccc(N2CCCC2)cc1F` [Cpd 38, 5-ethyl-6-[2-fluoro-4-(pyrrolidin-1-yl)phenyl]-2-oxo-1,2-dihydropyridine-3-carboxylic acid] was tested, and the MIC [1, 11] was < 1 µg/mL, the MIC [2] was 1 to 3.5 µg/mL (≈ 3.03 to 10.6 µM) and the MIC [3] was 3.5 to 12.5 µg/mL (≈ 10.6 to 37.8 µM). The MIC [4] was 12.5 to 150 µg/mL (≈ 37.8 to 454 µM), the MIC [5] was 12.5 to 150 µg/mL (≈ 37.8 to 454 µM) and the MIC [6] was 12.5 to 150 µg/mL (≈ 37.8 to 454 µM). The MIC [7] was < 1 µg/mL.
In the case of `CCc1cc(C(=O)O)c(=O)[nH]c1-c1ccc(N(C)C)cc1F` [Cpd 53, 6-[4-(dimethylamino)-2-fluorophenyl]-5-ethyl-2-oxo-1,2-dihydropyridine-3-carboxylic acid], the MIC [1, 11] is reported as < 1 µg/mL, the MIC [2] is reported as 1 to 3.5 µg/mL (≈ 3.29 to 11.5 µM) and the MIC [3] is reported as 12.5 to 150 µg/mL (≈ 41.1 to 493 µM). The MIC [7] was < 1 µg/mL.
`CCc1cc(C(=O)O)c(=O)[nH]c1-c1ccc(N(C)CC)cc1` [Cpd 160, 5-ethyl-6-{4-[ethyl(methyl)amino]phenyl}-2-oxo-1,2-dihydropyridine-3-carboxylic acid] was tested, and the MIC [1, 11] was < 1 µg/mL, the MIC [2] was 1 to 3.5 µg/mL (≈ 3.33 to 11.7 µM) and the MIC [3] was 12.5 to 150 µg/mL (≈ 41.6 to 499 µM). The MIC [4] was 12.5 to 150 µg/mL (≈ 41.6 to 499 µM), the MIC [5] was 12.5 to 150 µg/mL (≈ 41.6 to 499 µM) and the MIC [6] was 12.5 to 150 µg/mL (≈ 41.6 to 499 µM). For the same molecule, the MIC [8] was < 1 µg/mL and the MIC [7] was < 1 µg/mL.
With `CCc1cc(C(=O)O)c(=O)[nH]c1-c1ccc(N2CCC(CNCc3ccccc3)C2)cc1.Cl` (stereo not drawn) [Cpd 182, 6-(4-{3-[(benzylamino)methyl]pyrrolidin-1-yl}phenyl)-5-ethyl-2-oxo-1,2-dihydropyridine-3-carboxylic acid hydrochloride] the MIC [1, 11] was < 1 µg/mL, the MIC [2] was < 1 µg/mL and the MIC [3] was 12.5 to 150 µg/mL. The MIC [4] was 12.5 to 150 µg/mL, the MIC [5] was 12.5 to 150 µg/mL and the MIC [6] was 12.5 to 150 µg/mL. For the same molecule, the MIC [7] was < 1 µg/mL and the MIC [9] was < 1 µg/mL.
In the case of `CCc1cc(C(=O)O)c(=O)[nH]c1-c1ccc(N2CCC(CN(C)C)C2)cc1.O=C(O)C(F)(F)F` (stereo not drawn) [Cpd 185, 6-(4-{3-[(dimethylamino)methyl]pyrrolidin-1-yl}phenyl)-5-ethyl-2-oxo-1,2-dihydropyridine-3-carboxylic acid trifluoroacetate], the MIC [1] is reported as < 1 µg/mL, the MIC [2] is reported as 3.5 to 12.5 µg/mL and the MIC [3] is reported as 12.5 to 150 µg/mL. The MIC [4] was 12.5 to 150 µg/mL, the MIC [5] was 12.5 to 150 µg/mL and the MIC [6] was 12.5 to 150 µg/mL. For the same molecule, the MIC [7] was 1 to 3.5 µg/mL and the MIC [9] was < 1 µg/mL.
`CCc1cc(C(=O)O)c(=O)[nH]c1-c1ccc(N2C[C@H]3CCN(C)[C@H]3C2)cc1.O=C(O)C(F)(F)F` [Cpd 187, 5-ethyl-6-{4-[(3aR,6aR)-1-methylhexahydropyrrolo[3,4-b]pyrrol-5(1H)-yl]phenyl}-2-oxo-1,2-dihydropyridine-3-carboxylic acid trifluoroacetate] was tested, and the MIC [1] was < 1 µg/mL, the MIC [2] was 3.5 to 12.5 µg/mL and the MIC [3] was 12.5 to 150 µg/mL. For the same molecule, the MIC [4] was 12.5 to 150 µg/mL, the MIC [5] was 12.5 to 150 µg/mL and the MIC [6] was 12.5 to 150 µg/mL. For the same molecule, the MIC [7] was 1 to 3.5 µg/mL and the MIC [9] was < 1 µg/mL.
With `CCc1c(-c2ccc(N3CC(N)C4(CC4)C3)cc2)[nH]c(=O)c(C(=O)O)c1O.O=C(O)C(F)(F)F` (stereo not drawn) [Cpd 252, 6-[4-(7-amino-5-azaspiro[2.4]hept-5-yl)phenyl]-5-ethyl-4-hydroxy-2-oxo-1,2-dihydropyridine-3-carboxylic acid trifluoroacetate] the MIC [1] was < 1 µg/mL, the MIC [2] was 1 to 3.5 µg/mL and the MIC [3] was 12.5 to 150 µg/mL. It also gave an MIC [4] of 3.5 to 12.5 µg/mL, an MIC [5] of 12.5 to 150 µg/mL and an MIC [6] of 12.5 to 150 µg/mL. The MIC [10] was 12.5 to 150 µg/mL.
With `CCc1c(-c2ccc(N3C[C@H]4CN(C)C[C@H]4C3)cc2)[nH]c(=O)c(C(=O)O)c1O.Cl` [Cpd 273, 5-ethyl-4-hydroxy-6-{4-[(3aR,6aS)-5-methylhexahydropyrrolo[3,4-c]pyrrol-2(1H)-yl]phenyl}-2-oxo-1,2-dihydropyridine-3-carboxylic acid hydrochloride] the MIC [1, 11] was < 1 µg/mL, the MIC [2] was 1 to 3.5 µg/mL and the MIC [3] was 12.5 to 150 µg/mL. It also gave an MIC [4] of 12.5 to 150 µg/mL, an MIC [5] of 12.5 to 150 µg/mL and an MIC [6] of 12.5 to 150 µg/mL. It also gave an MIC [7] of 1 to 3.5 µg/mL and an MIC [9] of 1 to 3.5 µg/mL.
With `CCc1c(-c2ccc(N3CCC(C)(CN)C3)cc2)[nH]c(=O)c(C(=O)O)c1O` (stereo not drawn) [Cpd 290, 6-{4-[3-(aminomethyl)-3-methylpyrrolidin-1-yl]phenyl}-5-ethyl-4-hydroxy-2-oxo-1,2-dihydropyridine-3-carboxylic acid] the MIC [1, 11] was < 1 µg/mL, the MIC [2] was 1 to 3.5 µg/mL (≈ 2.69 to 9.42 µM) and the MIC [3] was 12.5 to 150 µg/mL (≈ 33.7 to 404 µM). It also gave an MIC [4] of 3.5 to 12.5 µg/mL (≈ 9.42 to 33.7 µM), an MIC [5] of 12.5 to 150 µg/mL (≈ 33.7 to 404 µM) and an MIC [6] of 3.5 to 12.5 µg/mL (≈ 9.42 to 33.7 µM). It also gave an MIC [10] of 12.5 to 150 µg/mL (≈ 33.7 to 404 µM).
For `CCc1cc(C(=O)O)c(=O)[nH]c1-c1ccc(N2CC=CC2)cc1` [Cpd 301, 6-[4-(2,5-dihydro-1H-pyrrol-1-yl)phenyl]-5-ethyl-2-oxo-1,2-dihydropyridine-3-carboxylic acid], the MIC [1, 11] was < 1 µg/mL, the MIC [2] was < 1 µg/mL and the MIC [3] was < 1 µg/mL. The MIC [4] was 12.5 to 150 µg/mL (≈ 40.3 to 483 µM), the MIC [5] was 12.5 to 150 µg/mL (≈ 40.3 to 483 µM) and the MIC [6] was 12.5 to 150 µg/mL (≈ 40.3 to 483 µM). For the same molecule, the MIC [10] was 3.5 to 12.5 µg/mL (≈ 11.3 to 40.3 µM).
